Consider seven molecules from patent US6617127B2, “Synthesis and recovery of aspartame involving enzymatic deformylation step” (Holland Sweetener Company, V.O.F., priority 1998, dated 2003).

For orientation: kcat/Km means the second-order rate constant that governs catalysis at low substrate concentration. Usually Km stands for the concentration of substrate that gives half-maximal velocity. For orientation: kcat means the number of substrate molecules converted per active site and unit of time at saturation.

Residues, ends and D or L forms follow the SMILES beside them. *: point of attachment. For = O=C*

The target of data set [1] is T1, EC 3.5.1.27 PDF (Fe^2+) enzyme (Escherichia coli, UniProt P0A6K3).
T1 construct: made in house; host or cells: E. coli (overproducing cells)
T1 sequence (P0A6K3 1-169): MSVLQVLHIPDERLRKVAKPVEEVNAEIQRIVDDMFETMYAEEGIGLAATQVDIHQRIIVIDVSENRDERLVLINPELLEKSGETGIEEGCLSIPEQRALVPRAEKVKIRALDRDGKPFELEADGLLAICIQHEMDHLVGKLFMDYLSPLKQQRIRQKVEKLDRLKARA
The data set is described as follows: Deformylation reactions with PDF (Fe^2+), free amino compound determined by TNBS. In kind it is biochemical, E. coli. Particulars: for yield (%) of deformylated product: 100 mM substrate, 0.2 mM PDF (Fe^2+), MES/KOH pH 6.2, 250 mM KCl, 37° C., after 10 hours; for inhibition of the PDF in the deformylation of F-α-AP and F-α-APM: presence of the β-form. The method, then:
An EC 3.5.1.27 PDF (Fe^2+) enzyme was isolated from overproducing E. coli cells grown at 30° C. in 1.6 l TB medium for 14-16 hours. […] After washing with 120 ml of 20 mM Hepes/KOH, 100 mM KF, 0.2 mM TCEP, pH 7.7, the PDF (Fe^2+) was eluted with 150 ml 20 mM Hepes/KOH, 100 mM KCl, 0.2 mM TCEP, pH 7.7. […] After adjustment of the TCEP concentration to 1 mM and protein concentration to 40 mg/ml PDF (Fe^2+) was stored frozen at −60° C.
Compounds (100 mM) as indicated in Table 2 for each separate Example were incubated in the presence of 100 mM aqueous 2-(N-morpholino)-ethanesulphonic acid (MES)/KOH buffer pH=6.2 and 250 mM KCl at 37° C. […] Following a brief centrifugation, the amount of deformylated compounds in the supernatant was determined by trinitrobenzene sulphonic acid (TNBS) according to the method of Fields (Methods in Enzymology, 25, 464-468 (1972)), using ε420=21.2 mM^−1 cm^−1. The amount of (deformylated) compound each time was corrected for the intrinsic amount of free amino compound which was detected without incubation with the PDF.
The product yields indicated are the yields after 10 hours of reaction time.
In addition, the catalytic properties of the PDF in the deformylation reactions of F-α-AP and F-α-APM (in particular the initial reaction rates for deformylation in resp. 1 hour for F-α-APM and 3 hours for F-α-AP) were determined by performing the reactions of Examples 1 and 2 at various substrate concentrations from 2-140 mM. In particular, the following catalytic properties of the enzyme were determined: […]

Data set [2] concerns immobilized penicillin-acylase. Briefly: Comparative Example D: deformylation of F-α-APM with penicillin-acylase, TLC. In kind it is biochemical. Particulars: 1 g F-α-APM in 25 ml, 0.2 g enzyme preparation, pH 6,5, 37° C., 48 hours. The method, then:
1 g of F-α-APM was dissolved in 25 ml of distilled water and the pH was adjusted to 6,5 by the addition of 0.1 M aqueous NaOH. Then, 0.2 g of an immobilized penicillin-acylase preparation was added. The reaction mixture was allowed to stand for 48 hours at 37° C. At regular time intervals during the reaction, samples were taken and analyzed by thin layer chromatography using α-APM as a reference substance.

A further data set deals with penicillin-acylase. The conditions noted are these: after 36 hours, 50 U of enzyme and 2 g of F-α-APM; cited from earlier work.
Substrate in data set [3]: COC(=O)[C@H](Cc1ccccc1)NC(=O)C[C@H](NC=O)C(=O)O
The data set is described as follows: Deformylation reactions with PDF (Fe^2+), free amino compound determined by TNBS. Particulars: other: PDF (Fe^2+), pH 6.2, 37° C. In kind it is biochemical, E. coli.

Substrate in data set [4]: COC(=O)[C@H](Cc1ccccc1)NC(=O)[C@H](CC(=O)O)NC=O
The description is as above. In kind it is biochemical, E. coli. The conditions noted are these: other: substrate concentrations 2-140 mM, initial reaction rates.

Substrate in data set [5]: O=CN[C@@H](CC(=O)N[C@@H](Cc1ccccc1)C(=O)O)C(=O)O
The data set is described as above. In kind it is biochemical, E. coli. Particulars: other: PDF (Fe^2+), pH 6.2, 37° C.

Substrate in data set [6]: O=CN[C@@H](CC(=O)O)C(=O)N[C@@H](Cc1ccccc1)C(=O)O
Described as above. In kind it is biochemical, E. coli. The conditions noted are these: other: substrate concentrations 2-140 mM, initial reaction rates.

Data set [7] in a line: Activity assay of isolated PDF (Fe^2+). In kind it is biochemical. The conditions noted are these: 5 mM formylmethionyl-alanine, 30° C., pH=7.2. The method, then:
An EC 3.5.1.27 PDF (Fe^2+) enzyme was isolated from overproducing E. coli cells grown at 30° C. in 1.6 l TB medium for 14-16 hours. About 13 g (wet weight) of cell paste were suspended in 26 ml buffer (20 mM Hepes/KOH, 100 mM KF, pH 7.7 supplemented with 10 μg/ml catalase from bovine liver (Boehringer Mannheim) and 1 mM AEBSF, disintegrated by sonification (Branson B12, 20 min) at 0° C. and centrifuged at 200.000 g for 1 hour. The clear supernatant (1.3 g of protein; according to biurete reaction) was mixed with 1.3 ml 10% (w/v) Polymin G-35 (BASF) adjusted to pH 7.7 and centrifuged at 40.000 g for 10 minutes. The supernatant was applied to a 20 ml Met-Lys-Sepharose column that had been equilibrated with 20 mM Hepes/KOH, 100 mM KF, 0.2 mM TCEP, pH 7.7. After washing with 120 ml of 20 mM Hepes/KOH, 100 mM KF, 0.2 mM TCEP, pH 7.7, the PDF (Fe^2+) was eluted with 150 ml 20 mM Hepes/KOH, 100 mM KCl, 0.2 mM TCEP, pH 7.7. The protein containing fractions were concentrated by ultrafiltration using an Amicon PM10 membrane (yield: 140 mg protein, having an activity of 800 IU/mg; assay conditions: 5 mM formylmethionyl-alanine, 30° C., pH=7.2). After adjustment of the TCEP concentration to 1 mM and protein concentration to 40 mg/ml PDF (Fe^2+) was stored frozen at −60° C.

Regarding `O=CN[C@@H](CC(=O)O)C(=O)N[C@@H](Cc1ccccc1)C(=O)O` [F-α-AP, N-formyl-α-L-aspartyl-L-phenylalanine] (For-Asp-Phe-OH), the “yield (%) of deformylated product” value in data set [1] is given as 21.6%.

For `COC(=O)[C@H](Cc1ccccc1)NC(=O)[C@H](CC(=O)O)NC=O` [F-α-APM, N-formyl-α-L-aspartyl-L-phenylalanine methyl ester] (For-Asp-Phe-OMe), in data set [1], the “yield (%) of deformylated product” value turned out to be 44.2%. Further, the “formation of α-APM from F-α-APM” value in data set [2] is on record as “In none of the samples taken, formation of α-APM from F-α-APM could be demonstrated”. Moreover, the yield of deformylation in the data set on penicillin-acylase is 20%.

Regarding `COC(=O)[C@H](Cc1ccccc1)NC(=O)C[C@H](NC=O)C(=O)O` [F-β-APM, N-formyl-β-L-aspartyl-L-phenylalanine methyl ester], in data set [1], the “yield (%) of deformylated product” value stood at 0.2%; the “inhibition of the PDF in the deformylation of F-α-AP and F-α-APM” value is recorded as “does not give any inhibition”.

Turning to `O=CN[C@@H](CC(=O)N[C@@H](Cc1ccccc1)C(=O)O)C(=O)O` [F-β-AP, N-formyl-β-L-aspartyl-L-phenylalanine], in data set [1], the “yield (%) of deformylated product” value was determined as 1.1%; the “inhibition of the PDF in the deformylation of F-α-AP and F-α-APM” value is given as “does not give any inhibition”.

Regarding `O=CN[C@@H](CC(=O)O)C(=O)O` [F-Asp, N-formyl-L-aspartic acid], the “yield (%) of deformylated product” value in data set [1] amounted to 0.5%.

B1: EC 3.5.1.27 PDF (Fe^2+) enzyme (Escherichia coli K-12) (protein)
chain: MSVLQVLHIPDERLRKVAKPVEEVNAEIQRIVDDMFETMYAEEGIGLAATQVDIHQRIIVIDVSENRDERLVLINPELLEKSGETGIEEGCLSIPEQRALVPRAEKVKIRALDRDGKPFELEADGLLAICIQHEMDHLVGKLFMDYLSPLKQQRIRQKVEKLDRLKARA
notes: made in house; host or cells: E. coli (overproducing cells)
As for B1, the kcat/Km in data set [3] is less than 0.0001 M⁻¹ s⁻¹; in data set [4], 0.46 M⁻¹ s⁻¹; in data set [5], less than 0.0001 M⁻¹ s⁻¹; in data set [6], 0.27 M⁻¹ s⁻¹. The Km in data set [4] is reported as 25.3 mM; in data set [6], 12.3 mM. Also, the kcat in data set [4] stood at 0.0117 s⁻¹; in data set [6] it was 0.00333 s⁻¹.

B2: PDF (Fe^2+): EC 3.5.1.27 formylmethionyl peptide deformylase with Fe^2+ co-factor, isolated from overproducing E. coli cells (protein, UniProt P0A6K3 2-169, looked up)
Peptide deformylase: SVLQVLHIPDERLRKVAKPVEEVNAEIQRIVDDMFETMYAEEGIGLAATQVDIHQRIIVIDVSENRDERLVLINPELLEKSGETGIEEGCLSIPEQRALVPRAEKVKIRALDRDGKPFELEADGLLAICIQHEMDHLVGKLFMDYLSPLKQQRIRQKVEKLDRLKARA
modifications: Fe2+ cofactor
notes: EC 3.5.1.27 formylmethionyl peptide deformylase with Fe^2+ co-factor, isolated from overproducing E. coli cells
Consider B2, for which the “activity of the enzyme” value in data set [7] came out at 800 IU/mg.
